From patent publication US7528239B1, “Receptor that binds trail” (Immunex Corporation, priority 1997, dated 2009)
Peptide text beside a SMILES is read from it. * marks the point of attachment. Cbz = O=C(OCc1ccccc1)*; CH2F = FC*

Legend:
[1] = system: CV-1/EBNA cells expressing TRAIL-R; assay: TRAIL-R-induced death of transfected CV-1/EBNA cells (lacZ co-transfection, X-gal staining); type: cell-based, African green monkey; settings: 48 hours after transfection
Description: CV-1/EBNA cells were transfected, by the DEAE-dextran method, with expression plasmids for TRAIL-R (pDC409-TRAIL-R), together with a threefold excess of empty expression vector (pDC409) in the presence or absence of z-VAD-fmk (10 μM; in the culture medium), or together with a threefold excess of expression vector pDC409-CrmA, pDC409-p35, or pDC409-FADD-DN. In addition, 400 ng/slide of an expression vector for the E. coli lacz gene was co-transfected together with all DNA mixes. The transfected cells were cultured in chambers mounted on slides.
48 hours after transfection, cells were washed with PBS, fixed with glutaraldehyde and incubated with X-gal (5-bromo-4-chloro-3-indoxyl-β-D-galactopyranoside). Cells expressing β-galactosidase stain blue. A decrease in the percentage of stained cells indicates loss of β-galactosidase expression, and correlates with death of cells that express the protein(s) co-transfected with the lacz gene.

[2] = molecular target: T1, full length human TRAIL-R (Homo sapiens, UniProt O14763, V191A); assay: FACS binding assay of LZ-TRAIL to CV-1/EBNA cells expressing recombinant TRAIL-R; settings: LZ-TRAIL 5 μg/ml; cells co-transfected with TRAIL-R and CrmA vectors compared to CrmA vector alone; 48 hours after transfection
T1 construct: expressed in transfected cells; host or cells: CV-1/EBNA cells, co-transfected with pDC409-CrmA
Description: Full length human TRAIL-R was expressed and tested for the ability to bind TRAIL. The binding assay was conducted as follows.
A fusion protein comprising a leucine zipper peptide fused to the N-terminus of a soluble TRAIL polypeptide (LZ-TRAIL) was employed in the assay. An expression construct was prepared, essentially as described for preparation of the Flag®-TRAIL expression construct in Wiley et al. (Immunity, 3:673-682, 1995; hereby incorporated by reference), except that DNA encoding the Flag® peptide was replaced with a sequence encoding a modified leucine zipper that allows for trimerization. The construct, in expression vector pDC409, encoded a leader sequence derived from human cytomegalovirus, followed by the leucine zipper moiety fused to the N-terminus of a soluble TRAIL polypeptide. The TRAIL polypeptide comprised amino acids 95-281 of human TRAIL (a fragment of the extracellular domain), as described in Wiley et al. (supra). […]
CV-1/EBNA cells were co-transfected with pDC409-TRAIL-R together with pDC409-CrmA, or with pDC409-CrmA alone. […] 48 hours after transfection, cells were detached non-enzymatically and incubated with LZ-TRAIL (5 μg/ml), a biotinylated anti-LZ monoclonal antibody (5 μg/ml), and phycoerythrin-conjugated streptavidin (1:400), before analysis by fluorescence-activated cell scanning (FACS). […]

[3] = system: TRAIL-induced apoptosis of Jurkat cells; assay: Blocking of TRAIL-induced apoptosis of Jurkat cells (MTT cell viability assay); type: cell-based, human; settings: LZ-TRAIL 13 ng/ml, test substance serially diluted from 10 μg/ml
Description: TRAIL-R was tested for the ability to block TRAIL-induced apoptosis of Jurkat cells. The TRAIL-R employed in the assay was in the form of a fusion protein designated sTRAIL-R/Fc, which comprised the extracellular domain of human TRAIL-R, fused to the N-terminus of an Fc polypeptide derived from human IgG1.
A fusion protein designated TNF-R2—Fc, employed as a control, comprised the extracellular domain of the TNF receptor protein known as p75 or p80 TNF-R (Smith et al., Science 248:1019-1023, 1990; Smith et al. Cell 76:959-962, 1994), fused to an Fc polypeptide. A mouse monoclonal antibody that is a blocking antibody directed against human TRAIL, was employed in the assay as well.
Jurkat cells were incubated with varying or constant concentrations of LZ-TRAIL (the LZ-TRAIL fusion protein described in example 6), in the absence or presence of varying concentrations of sTRAIL-R-Fc, TNF-R2-Fc, or the TRAIL-specific monoclonal antibody. Cell death was quantitated using an MTT cell viability assay (MTT is 3-[4,5-dimethylthiazol-2-yl]-2,5-diphenyltetrazolium bromide), as previously described (Mosmann, J. Immunol. Methods 65:55-63, 1983). […]

Molecule: COC(=O)C[C@H](NC(=O)[C@H](C)NC(=O)[C@@H](NC(=O)OCc1ccccc1)C(C)C)C(=O)CF [z-VAD-fmk, benzyloxycarbonyl-Val-Ala-Asp-fluoromethylketone, reference compound] (Cbz-Val-Ala-Asp(OMe)-CH2F)
- reduction of death of transfected cells expressing TRAIL-R ([1]; 10 μM in the culture medium): effectively reduced death

Molecule: LZ-TRAIL: leucine zipper peptide fused to the N-terminus of a soluble TRAIL polypeptide (amino acids 95-281 of human TRAIL)
- binding of LZ-TRAIL to transfected cells [2]: significantly enhanced binding

Molecule: sTRAIL-R/Fc: extracellular domain of human TRAIL-R, fused to the N-terminus of an Fc polypeptide derived from human IgG1
- blocking of TRAIL-induced apoptosis (percent cell death) [3]: blocked TRAIL-induced apoptosis in a dose dependent fashion
- blocking of TRAIL-induced apoptosis (percent cell death) ([3]; listed as soluble TRAIL-R/Fc fusion protein): blocked TRAIL-induced apoptosis

B1: baculovirus p35: 35-kilodalton protein encoded by Autographa californica nuclear polyhedrosis virus, expressed from pDC409-p35 (protein, UniProt P08160 1-299, looked up)
Early 35 kDa protein: MCVIFPVEIDVSQTIIRDCQVDKQTRELVYINKIMNTQLTKPVLMMFNISGPIRSVTRKNNNLRDRIKSKVDEQFDQLERDYSDQMDGFHDSIKYFKDEHYSVSCQNGSVLKSKFAKILKSHDYTDKKSIEAYEKYCLPKLVDERNDYYVAVCVLKPGFENGSNQVLSFEYNPIGNKVIVPFAHEINDTGLYEYDVVAYVDSVQFDGEQFEEFVQSLILPSSFKNSEKVLYYNEASKNKSMIYKALEFTTESSWGKSEKYNWKIFCNGFIYDKKSKVLYVKLHNVTSALNKNVILNTIK
- reduction of death of transfected cells expressing TRAIL-R ([1]; co-transfected, threefold excess of expression vector): effectively reduced death
